Consider 12 compounds from publication PMC7508628, “Targeting the Respiratory Syncytial Virus N^0-P Complex with Constrained α-Helical Peptides in Cells and Mice” (Antimicrobial Agents and Chemotherapy, 2020).

One data set concerns rHRSV-mCherry. The note with it: read-out: EC50 (half-maximal response inhibitory concentration), inhibition of RSV infection; HEp-2 cells, MOI 0.2, peptides added after 2 h infection, mCherry fluorescence at 48 h postinfection; duplicates.
Data set [1] in a line: Circular dichroism spectroscopy, α-helical content. The data set is classed as physicochemical. The note with it: CD, 10 mM phosphate buffer pH 7.5, 50 μM peptide, 25°C, calculated from ellipticity at 222 nm; average of three measurements. On the procedure: The α-helical stabilization appeared to be higher for the i, i + 7 staples overall.
The circular dichroism spectra were acquired on a Chirascan spectropolarimeter. The samples were prepared in 10 mM phosphate buffer, pH 7.5, at a peptide concentration of 50 μM. Data were recorded at 25°C by step scan from 180 nm to 260 nm in a 0.5-mm-pathlength quartz cell using 0.2-nm-wavelength increments, a 1-nm bandwidth, and a response time of 1 s. Each spectrum was an average of three measurements and was subtracted from the buffer baseline. The data were converted to per residue molar ellipticity units (θ; in degrees · square centimeters · decimoles^−1 · number of residues^−1) and smoothed using Igor Pro software. Percent helicity was calculated as follows: (100 × CD222)/(C × N × {40,000 × [1 − (2.5/N)]}), where CD222 is the molar ellipticity (θ) at 222 nm (in millidegrees), N is the number of amino acids in the peptide, and C is the peptide molar concentration (in moles per liter).

The next data set can be described thus: circular dichroism. The note with it: 10 mM phosphate; pH 7.5; 25 °C; 50 uM. A general note: Circular dichroism is widely used to follow secondary structure.

Where a SMILES comes first, the peptide text is derived from it. Bridges are numbered along the chain shown (N, C = ends). [ ]: non-standard residue; d: D form. R8 = C=CCCCCCC[C@@](C)(N)C(=O)O; R5 = C=CCCC[C@@](C)(N)C(=O)O; S5 = C=CCCC[C@](C)(N)C(=O)O

Take `CC[C@H](C)[C@H](NC(=O)[C@H](CO)NC(=O)[C@]1(C)CCCC=CCCC[C@](C)(NC(=O)[C@H](C)NC(=O)[C@H](CCCCN)NC(=O)[C@H](CC(N)=O)NC(=O)[C@H](CC(N)=O)NC(=O)[C@H](C)NC(=O)[C@H](CC(=O)O)NC(=O)[C@H](CCC(=O)O)NC(=O)CNC(=O)[C@H](Cc2c[nH]cn2)NC(=O)[C@H](Cc2ccccc2)NC(=O)[C@H](CCC(=O)O)NC(C)=O)C(=O)N[C@@H](CCCCN)C(=O)N[C@@H](Cc2ccccc2)C(=O)N[C@@H](CC(C)C)C(=O)N1)C(=O)N[C@@H](CCCCN)C(=O)N[C@]1(C)CCCC=CCCC[C@@](C)(C(=O)N[C@@H](CO)C(N)=O)NC(=O)[C@H](Cc2ccccc2)NC(=O)[C@H](CCCCN)NC1=O` [2b1f] (Ac-EFHGEDANNKA[S5]KFL[S5]SIK[R5]KF[S5]S-NH2; staple 12-16, 20-23): in the data set on rHRSV-mCherry, the EC50 is 41 ± 0.5 µM. For the same compound, the “% helicity” value in data set [1] is 37.6%.

In the data set “circular dichroism”, `CC[C@H](C)[C@@H]1NC(=O)[C@](C)(NC(=O)[C@H](CCC(=O)O)NC(=O)[C@H](CC(C)C)NC(=O)[C@H](Cc2ccccc2)NC(=O)[C@H](CCCCN)NC(=O)[C@@H](NC(=O)[C@H](C)NC(=O)[C@H](CCCCN)NC(=O)[C@H](CC(N)=O)NC(=O)[C@H](CC(N)=O)NC(=O)[C@H](C)NC(=O)[C@H](CC(=O)O)NC(=O)[C@H](CCC(=O)O)NC(C)=O)[C@@H](C)O)CCCCCCC=CCCC[C@@](C)(C(N)=O)NC(=O)[C@H](C)NC(=O)[C@H](Cc2ccccc2)NC(=O)[C@H](CCCCN)NC(=O)CNC(=O)[C@H](CCCCN)NC1=O` [3e] (Ac-EDANNKATKFLE[R8]IKGKFA[S5]-NH2; staple 13-20) showed a helicity of 19.9%. Moreover, the “% helicity” value in data set [1] is listed as 19.9%.

`CC[C@H](C)[C@H](NC(=O)[C@]1(C)CCCC=CCCCCCC[C@@](C)(NC(=O)[C@H](CC(N)=O)NC(=O)[C@H](CC(N)=O)NC(=O)[C@H](C)NC(=O)[C@]2(C)CCCC=CCCC[C@](C)(NC(=O)[C@H](CCC(=O)O)NC(C)=O)C(=O)N[C@@H](Cc3c[nH]cn3)C(=O)NCC(=O)N[C@@H](CCC(=O)O)C(=O)N2)C(=O)N[C@@H](C)C(=O)N[C@@H]([C@@H](C)O)C(=O)N[C@@H](CCCCN)C(=O)N[C@@H](Cc2ccccc2)C(=O)N[C@@H](CC(C)C)C(=O)N[C@@H](CCC(=O)O)C(=O)N1)C(=O)N[C@@H](CCCCN)C(=O)NCC(=O)N[C@@H](CCCCN)C(=O)N[C@@H](Cc1ccccc1)C(=O)N[C@@H](C)C(=O)N[C@@H](CO)C(N)=O` [4c3b] (Ac-E[S5]HGE[S5]ANN[R8]ATKFLE[S5]IKGKFAS-NH2; staple 2-6, 10-17): in the data set on rHRSV-mCherry, the EC50 stood at 39.9 ± 4.5 µM. For the same compound, the “% helicity” value in data set [1] is recorded as 34.2%.

On to `CC[C@H](C)[C@H](NC(=O)[C@H](CO)NC(=O)[C@]1(C)CCCC=CCCC[C@@](C)(NC(=O)[C@@H](NC(=O)[C@H](C)NC(=O)[C@H](CCCCN)NC(=O)[C@H](CC(N)=O)NC(=O)[C@H](CC(N)=O)NC(=O)[C@H](C)NC(=O)[C@H](CC(=O)O)NC(=O)[C@H](CCC(=O)O)NC(=O)CNC(=O)[C@H](Cc2c[nH]cn2)NC(=O)[C@H](Cc2ccccc2)NC(=O)[C@H](CCC(=O)O)NC(C)=O)[C@@H](C)O)C(=O)N[C@@H](Cc2ccccc2)C(=O)N[C@@H](CC(C)C)C(=O)N1)C(=O)N[C@@H](CCCCN)C(=O)N[C@]1(C)CCCC=CCCC[C@@](C)(C(=O)N[C@@H](CO)C(N)=O)NC(=O)[C@H](Cc2ccccc2)NC(=O)[C@H](CCCCN)NC1=O` [1c1f] (Ac-EFHGEDANNKAT[R5]FL[S5]SIK[R5]KF[S5]S-NH2; staple 13-16, 20-23), for which the EC50 in the data set on rHRSV-mCherry is more than 100 µM. Further, the “% helicity” value in data set [1] is listed as 39.2%.

In the data set “circular dichroism”, `CC[C@H](C)[C@@H]1NC(=O)[C@](C)(NC(=O)[C@H](CCC(=O)O)NC(=O)[C@H](CC(C)C)NC(=O)[C@H](Cc2ccccc2)NC(=O)[C@H](CCCCN)NC(=O)[C@@H](NC(=O)[C@H](C)NC(=O)[C@H](CCCCN)NC(=O)[C@H](CC(N)=O)NC(=O)[C@H](CC(N)=O)NC(=O)[C@H](C)NC(=O)[C@H](CC(=O)O)NC(=O)[C@H](CCC(=O)O)NC(C)=O)[C@@H](C)O)CCCC=CCCC[C@@](C)(C(=O)N[C@@H](CCCCN)C(=O)N[C@@H](Cc2ccccc2)C(=O)N[C@@H](C)C(=O)N[C@@H](CO)C(N)=O)NC(=O)[C@H](CCCCN)NC1=O` (Ac-EDANNKATKFLE[R5]IK[S5]KFAS-NH2; staple 13-16) displayed a helicity of 30.7%.

In the case of `CC[C@H](C)[C@H](NC(=O)[C@H](CO)NC(=O)[C@]1(C)CCCC=CCCCCCC[C@@](C)(NC(=O)[C@H](CC(N)=O)NC(=O)[C@H](C)NC(=O)[C@H](CC(=O)O)NC(=O)[C@H](CCC(=O)O)NC(C)=O)C(=O)N[C@@H](CCCCN)C(=O)N[C@@H](C)C(=O)N[C@@H]([C@@H](C)O)C(=O)N[C@@H](CCCCN)C(=O)N[C@@H](Cc2ccccc2)C(=O)N[C@@H](CC(C)C)C(=O)N1)C(=O)N[C@@H](CCCCN)C(=O)NCC(=O)N[C@@H](CCCCN)C(=O)N[C@@H](Cc1ccccc1)C(=O)N[C@@H](C)C(=O)N[C@@H](CO)C(N)=O` (Ac-EDAN[R8]KATKFL[S5]SIKGKFAS-NH2; staple 5-12), the helicity in the data set “circular dichroism” is 64.6%.

`CC[C@H](C)[C@H](NC(=O)[C@H](CO)NC(=O)[C@H](CCC(=O)O)NC(=O)[C@H](CC(C)C)NC(=O)[C@H](Cc1ccccc1)NC(=O)[C@H](CCCCN)NC(=O)[C@@H](NC(=O)[C@H](C)NC(=O)[C@H](CCCCN)NC(=O)[C@H](CC(N)=O)NC(=O)[C@H](CC(N)=O)NC(=O)[C@H](C)NC(=O)[C@H](CC(=O)O)NC(=O)[C@H](CCC(=O)O)NC(C)=O)[C@@H](C)O)C(=O)N[C@@H](CCCCN)C(=O)N[C@@]1(C)CCCC=CCCC[C@@](C)(C(N)=O)NC(=O)[C@H](C)NC(=O)[C@H](Cc2ccccc2)NC(=O)[C@H](CCCCN)NC1=O` (Ac-EDANNKATKFLESIK[S5]KFA[S5]-NH2; staple 16-20) registered a helicity in the data set “circular dichroism” of 24.1%.

Consider `CC[C@H](C)[C@H](NC(=O)[C@H](CO)NC(=O)[C@]1(C)CCCC=CCCCCCC[C@@](C)(NC(=O)[C@H](CC(N)=O)NC(=O)[C@H](C)NC(=O)[C@H](CC(=O)O)NC(=O)[C@H](CCC(=O)O)NC(=O)CNC(=O)[C@H](Cc2c[nH]cn2)NC(=O)[C@H](Cc2ccccc2)NC(=O)[C@H](CCC(=O)O)NC(C)=O)C(=O)N[C@@H](CCCCN)C(=O)N[C@@H](C)C(=O)N[C@@H]([C@@H](C)O)C(=O)N[C@@H](CCCCN)C(=O)N[C@@H](Cc2ccccc2)C(=O)N[C@@H](CC(C)C)C(=O)N1)C(=O)N[C@@H](CCCCN)C(=O)N[C@]1(C)CCCC=CCCC[C@@](C)(C(=O)N[C@@H](CO)C(N)=O)NC(=O)[C@H](Cc2ccccc2)NC(=O)[C@H](CCCCN)NC1=O` [3a1f] (Ac-EFHGEDAN[R8]KATKFL[S5]SIK[R5]KF[S5]S-NH2; staple 9-16, 20-23), for which the EC50 in the data set on rHRSV-mCherry turned out to be 25.3 ± 17.9 µM. Moreover, the “% helicity” value in data set [1] is recorded as 37.7%.

In turn, `CC[C@H](C)[C@H](NC(=O)[C@]1(C)CCCC=CCCC[C@](C)(NC(=O)[C@@H](NC(=O)[C@H](C)NC(=O)[C@H](CCCCN)NC(=O)[C@H](CC(N)=O)NC(=O)[C@H](CC(N)=O)NC(=O)[C@H](C)NC(=O)[C@H](CC(=O)O)NC(=O)[C@H](CCC(=O)O)NC(C)=O)[C@@H](C)O)C(=O)N[C@@H](Cc2ccccc2)C(=O)N[C@@H](CC(C)C)C(=O)N[C@@H](CCC(=O)O)C(=O)N1)C(=O)N[C@@H](CCCCN)C(=O)NCC(=O)N[C@@H](CCCCN)C(=O)N[C@@H](Cc1ccccc1)C(=O)N[C@@H](C)C(=O)N[C@@H](CO)C(N)=O` [2c] (Ac-EDANNKAT[S5]FLE[S5]IKGKFAS-NH2; staple 9-13) gave a helicity in the data set “circular dichroism” of 16.8%. In data set [1], the “% helicity” value was 16.8%.

`CC[C@H](C)[C@H](NC(=O)[C@H](CO)NC(=O)[C@]1(C)CCCC=CCCC[C@](C)(NC(=O)[C@H](C)NC(=O)[C@H](CCCCN)NC(=O)[C@H](CC(N)=O)NC(=O)[C@H](CC(N)=O)NC(=O)[C@H](C)NC(=O)[C@H](CC(=O)O)NC(=O)[C@H](CCC(=O)O)NC(C)=O)C(=O)N[C@@H](CCCCN)C(=O)N[C@@H](Cc2ccccc2)C(=O)N[C@@H](CC(C)C)C(=O)N1)C(=O)N[C@@H](CCCCN)C(=O)NCC(=O)N[C@@H](CCCCN)C(=O)N[C@@H](Cc1ccccc1)C(=O)N[C@@H](C)C(=O)N[C@@H](CO)C(N)=O` (Ac-EDANNKA[S5]KFL[S5]SIKGKFAS-NH2; staple 8-12) gave a helicity in the data set “circular dichroism” of 31%.

In “circular dichroism”, `CC[C@H](C)[C@@H]1NC(=O)[C@@](C)(NC(=O)[C@H](CCC(=O)O)NC(=O)[C@H](CC(C)C)NC(=O)[C@H](Cc2ccccc2)NC(=O)[C@H](CCCCN)NC(=O)[C@@H](NC(=O)[C@H](C)NC(=O)[C@H](CCCCN)NC(=O)[C@H](CC(N)=O)NC(=O)[C@H](CC(N)=O)NC(=O)[C@H](C)NC(=O)[C@H](CC(=O)O)NC(=O)[C@H](CCC(=O)O)NC(C)=O)[C@@H](C)O)CCCC=CCCC[C@@](C)(C(=O)N[C@@H](Cc2ccccc2)C(=O)N[C@@H](C)C(=O)N[C@@H](CO)C(N)=O)NC(=O)CNC(=O)[C@H](CCCCN)NC1=O` (Ac-EDANNKATKFLE[S5]IKG[S5]FAS-NH2; staple 13-17) displayed a helicity of 46.5%.

For `CC[C@H](C)[C@H](NC(=O)[C@H](CO)NC(=O)[C@H](CCC(=O)O)NC(=O)[C@H](CC(C)C)NC(=O)[C@H](Cc1ccccc1)NC(=O)[C@]1(C)CCCC=CCCC[C@](C)(NC(=O)[C@H](CC(N)=O)NC(=O)[C@H](C)NC(=O)[C@H](CC(=O)O)NC(=O)[C@H](CCC(=O)O)NC(C)=O)C(=O)N[C@@H](CCCCN)C(=O)N[C@@H](C)C(=O)N[C@@H]([C@@H](C)O)C(=O)N1)C(=O)N[C@@H](CCCCN)C(=O)NCC(=O)N[C@@H](CCCCN)C(=O)N[C@@H](Cc1ccccc1)C(=O)N[C@@H](C)C(=O)N[C@@H](CO)C(N)=O` [2a] (Ac-EDAN[S5]KAT[S5]FLESIKGKFAS-NH2; staple 5-9), in the data set “circular dichroism”, the helicity turned out to be 17.9%. In data set [1], the “% helicity” value is listed as 17.9%.
